pIC50: −log10 of the molar value. Activity calls are given as the source filed them. No cut-off for these calls is given here.

Assay [1] deals with T1, Enoyl-[acyl-carrier-protein] reductase [NADH] (Mycobacterium tuberculosis) (UniProt P9WGR1).
T1 sequence (whole entry): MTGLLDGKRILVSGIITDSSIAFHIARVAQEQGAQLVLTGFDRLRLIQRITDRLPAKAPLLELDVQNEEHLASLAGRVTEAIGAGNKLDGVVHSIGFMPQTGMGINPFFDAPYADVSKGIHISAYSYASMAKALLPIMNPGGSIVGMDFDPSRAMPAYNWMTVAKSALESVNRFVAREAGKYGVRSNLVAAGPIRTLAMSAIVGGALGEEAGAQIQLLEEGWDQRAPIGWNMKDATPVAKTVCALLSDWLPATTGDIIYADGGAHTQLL
The experiment in a line: inhibition of Mycobacterium tuberculosis InhA at 100 uM after 20 mins by fluorometric assay.

For assay [2], the target named is T2, Enoyl-[acyl-carrier-protein] reductase [NADH] (Mycobacterium tuberculosis, UniProt P9WGR1).
T2 sequence (P9WGR1 whole entry): T1 sequence (whole entry)
The experiment in a line: inhibition of Mycobacterium tuberculosis InhA after 20 mins by fluorometric assay.

As for `C/C=C(\C)c1cc(O)c(C)c(O)c1C(=O)Oc1cc(/C(C)=C/C)c(C(=O)O)c(O)c1C`, in assay [1], the result was inactive.

For orientation: pIC50 means −log10 of the IC50, conventionally taken in molar units. Low values mean a large IC50, high ones a small IC50. Take `C/C=C(\C)c1cc(O)c(C)c(OC(=O)c2c(/C(C)=C/C)cc(O)c(C)c2O)c1` [AGONODEPSIDE A]: the pIC50 in assay [2] is 4.12.

These data come from ChEMBL document CHEMBL1150118, “Agonodepsides a and B: two new depsides from a filamentous fungus F7524” (J Nat Prod, 2002).
